Data reported in patent US20240278014A1, “METHODS AND PHARMACEUTICAL FORMULATIONS FOR MODULATING THE PROPERTIES OF THE BLOOD LABYRINTH BARRIER” (Cochlear Limited, priority 2021, published 2024).

Key:
[1] = guinea pig, in vivo, iv
Method: Fluorescein (20 mM) was administered through a cannula in the jugular vein by continuous intravenous (IV) injection at a rate of 20 μL/minute. […] Implants were placed through a cochleostomy into the basal turn of the scala tympani. Perilymph sampling began two hours after IV infusion began, and the concentration of fluorescein in the perilymph was used as a proxy for BLB permeability. Sampling in the perilymph was accomplished as follows: The cochlear apex was prepared for fluid sampling by building a hydrophobic cup of silicone adhesive around it. When the apex was perforated, the emerging fluid collected in the cup without loss into the middle ear. Ten samples were collected in sequence, with each taking 60 to 90 seconds. […] Fluorescein concentrations were compared for implanted versus non-implanted […], and from ears of non-implanted control animals.

[2] = Perilymph fluorescein as proxy for BLB permeability after cochlear implantation; format: in vivo, guinea pigs; conditions: on average; same animal; perilymph sampled two hours after start of IV infusion
From the text: In some embodiments, methods for assessing a more permeable than normal blood labyrinth barrier (but not treating it or preventing it from becoming more permeable) involve injecting a pharmaceutical formulation functioning as a marker into the blood stream of a recipient, measuring the amount of formulation in the perilymph as a function of time. As the barrier becomes more permeable after implantation, the formulation may be detected in greater quantities in the perilymph. In this type of experiment, the data may be normalized to the contralateral ear (without an implant), which allows data to be collected from a single subject serving as its own “control.”
We measured the time course of BLB compromise following cochlear implantation in guinea pigs to characterize the development of increasing BLB permeability relating to the BLB disruption that surgical implantation causes.
Seven days following cochlear implantation, the perilymph was sampled at 126 minutes (non-implanted) and 127 minutes (implanted) after the start of IV fluorescein infusion began (shown in solid symbols). Open symbols show the same data corrected to a sample time beginning at 120 minutes after the start of the infusion, assuming a linear rate of entry through the BLB over time. […] Each sample time represents the mean of samples 1-6 from one ear; lines represent the group (n=5) mean. […]

[3] = in vivo; cited from earlier work

| Compound | elimination half time [1] [min] | volume of calculated time course [1] [mL] | BLB permeability increase (perilymph fluorescein, implanted versus nonimplanted ear) [2] | effect on BLB [3] |
| --- | --- | --- | --- | --- |
| O=C1OC2(c3ccc(O)cc3Oc3cc(O)ccc32)c2ccccc21 [Fluorescein] | 11 | 183 | two- to three-fold | – |
| lipopolysaccharide [LPS] | – | – | – | induce systemic inflammation, compromising the BLB |
